Source: patent US9206154B2 (The United States of America, as represented by the …, priority 2010, dated 2015)
One block for each molecule: values may come before it.

Key:
[1] = system: adenylyl cyclase; test: Forskolin-stimulated cAMP accumulation in human thyrocytes; assay type: cell-based
Source text: (§1) This was important because it has been shown that TSHR mutants signal differently in different cell types. […] TSH and the small molecule ligand agonist that were identified previously specifically increase expression of several genes in thyrocytes (J Biomol Screen 13, 120, 2008; Proc Nat Acad Sci 106, 12471, 2009).

[2] = system: 7TMR for vasoactive intestinal peptide; test: Vasoactive intestinal peptide-stimulated cAMP accumulation in human thyrocytes; assay type: cell-based
Source text: as §1

[3] = system: beta-adrenergic receptor; test: Isoproterenol-stimulated cAMP accumulation in human thyrocytes; assay type: cell-based
Source text: as §1

[4] = system: TPO, TSHR, TG, DIO2 and NIS mRNAs; test: Basal expression of thyroid gene mRNAs in primary cultures of human thyrocytes (quantitative RT-PCR); assay type: cell-based; settings: 30 μM, 48 hr, IBMX, no agonist
Method: FIG. 4B) Thyrocytes were incubated in media containing 2% fetal bovine serum and 1 mM IBMX without or with 30 μM 1 as described in Methods. After 48 h, the cells were lysed and the levels of the mRNAs were measured and normalized to GAPDH mRNA. The mRNA levels are presented as fold stimulation over control. The data are from three independent experiments with duplicate samples are shown.
Culture of primary human thyrocytes.
(§2) Quantitative RT-PCR. mRNA levels were measured using primers and probes were from Applied Biosystems. Quantitative RT-PCR results were normalized to GAPDH to correct for differences in RNA input.

[5] = target: T1, TSHR (Homo sapiens, UniProt P16473); settings: cited from earlier work
T1 construct: expressed in transfected cells

[6] = system: TPO mRNA; test: Basal and TSAb-induced up-regulation of TPO mRNA in primary cultures of human thyrocytes; assay type: cell-based; settings: 30 μM, 1:10 dilutions of GD sera, 48 hr
Method: Thyrocytes were incubated in DMEM containing 2% fetal bovine serum without (Control) or with 30 μM compound S2-6 without (basal) or with 1:10 dilutions of GD sera at 37 C. After 48 hr, the buffers were aspirated, the cells were lysed and the levels of TPO mRNA were measured and normalized to GAPDH mRNA. The mRNA levels are presented as fold of basal levels (Control). The data from 2 independent experiments with duplicate samples are shown.
as §2

[7] = target: T1, TSHR; test: Graves' disease sera-stimulated cAMP production in HEKTSHR cells; assay type: cell-based; settings: 1:30 dilutions of thirty GD sera
Method: FIG. 13A. […] After an additional 40 min, the incubation was stopped and total cAMP levels were measured by ELISA. The data are from one experiment with triplicate samples and are representative of 3 experiments. The effects of compound S2-6 were significant by paired t-test (P<0.01).
FIG. 13B. HEKTSHR cells were incubated without (Control) or with 30 μM compound S2-6 for 20 min and then 1 mM IBMX and 1:30 dilutions of thirty GD sera were added. After an additional 40 min, the incubation was stopped and total cAMP levels were measured by ELISA. […] The data are representative of 2 experiments performed in duplicate.

[8] = target: T1, TSHR; test: 125I-TSH binding to TSHRs on the surface of HEK-EM 293 cells; settings: HEK-EM 293 / HEKTSHR cells
Method: HEK-EM293 cells stably expressing TSHRs were seeded into 24-well plates and grown to near confluency. Cell surface binding was measured by incubation in 0.25 ml binding buffer (HBSS containing 2.5% milk powder and 0.2% BSA) containing 60,000 cpm bovine ^125I-TSH without or with xx μM 1 for 2 hr at RT; nonspecific binding was measured in the presence of 1.8 μM unlabeled bovine TSH. Cells were washed 3 times with 0.5 ml ice cold HBSS and lysed with 0.5 ml 0.4 N NaOH, and the cell-associated radioactivity counted in a gamma counter.

[9] = target: T1, TSHR; test: TSH-stimulated cAMP production in HEK-EM 293 cells stably expressing TSHRs; assay type: cell-based; settings: for classification from dose response of TSH-stimulated cAMP (FIG. 11): 1 mU/ml hTSH (EC50 dose)
Method: (§3) After 60 min, the cells were lysed and cAMP levels were measured by ELISA.
(§4) Non-treated cells, incubated with IBMX only, were used as control (basal activity). After 60 min, the cells were lysed and cAMP levels were measured by ELISA. […] After 40 min, the incubation was stopped and total cAMP levels were measured by ELISA.
After 40 min, the incubation was stopped and total cAMP levels were measured by ELISA. The data are from 2 experiments with duplicate samples and are presented as mean±SE.
(§5) Determination of cAMP production.

[10] = cited from earlier work
[11] = target: T2, TSHRs on retro-orbital fibroblasts (Homo sapiens, UniProt P16473); test: TSHR signaling in retro-orbital fibroblasts from patients with Graves' orbitopathy; assay type: cell-based; settings: preliminary experiment; fibroblasts in cell culture
T2 construct: endogenous in cells; host or cells: cultured retro-orbital fibroblasts from Graves' orbitopathy patients
Source text: In a preliminary experiment, it has been shown that compound S2-6 inhibits activation of TSHRs on retro-orbital fibroblasts acquired from patients with Graves' orbitopathy. Retro-orbital fibroblasts were obtained from patients undergoing decompression eye surgery for Graves' orbitopathy and were adapted to cell culture.

[12] = target: T1, TSHR; test: Basal (agonist-independent) cAMP production in HEK-EM 293 cells stably expressing TSHRs; assay type: cell-based; settings: for classification from dose response of basal cAMP (inverse agonist activity): 60 min in HBSS + 1 mM IBMX, % of basal activity
Method: as §3, §4
HEK-EM 293 cells stably expressing TSHRs were exposed to the noted concentrations of the small molecule ligands for 60 min in HBSS+1 mM IBMX. Non-treated cells, incubated with IBMX only, were used as control (basal activity). After 60 min, the cells were lysed and cAMP levels were measured by ELISA.
as §5

T1 sequence (P16473 21-764): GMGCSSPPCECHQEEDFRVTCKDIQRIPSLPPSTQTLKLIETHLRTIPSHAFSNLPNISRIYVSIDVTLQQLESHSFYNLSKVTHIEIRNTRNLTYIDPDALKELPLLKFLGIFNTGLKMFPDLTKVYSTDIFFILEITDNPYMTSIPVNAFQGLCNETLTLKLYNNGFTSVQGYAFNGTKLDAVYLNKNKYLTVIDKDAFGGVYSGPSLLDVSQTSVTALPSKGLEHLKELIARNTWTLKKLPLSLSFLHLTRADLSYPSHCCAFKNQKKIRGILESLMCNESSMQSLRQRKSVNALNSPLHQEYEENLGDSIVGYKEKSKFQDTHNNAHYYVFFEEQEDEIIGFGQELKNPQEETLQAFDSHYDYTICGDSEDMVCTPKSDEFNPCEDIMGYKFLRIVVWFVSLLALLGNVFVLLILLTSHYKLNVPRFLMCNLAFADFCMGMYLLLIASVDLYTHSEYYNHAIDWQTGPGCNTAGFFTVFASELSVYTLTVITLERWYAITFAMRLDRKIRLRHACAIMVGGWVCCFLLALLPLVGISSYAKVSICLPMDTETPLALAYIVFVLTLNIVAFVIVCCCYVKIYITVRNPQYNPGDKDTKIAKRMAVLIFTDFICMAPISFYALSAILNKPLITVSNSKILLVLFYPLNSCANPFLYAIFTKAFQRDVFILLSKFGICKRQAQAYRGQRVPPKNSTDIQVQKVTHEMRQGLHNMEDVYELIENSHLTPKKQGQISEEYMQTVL
T2 sequence (P16473 21-764): as above

classification from dose response of TSH-stimulated cAMP (FIG. 11) [9]: neutral antagonists
Structure (SMILES): COc1ccc(C2Nc3ccccc3C(=O)N2Cc2cccnc2)cc1COc1c(C)cc(NC(C)=O)cc1C (centres unmarked) [Compound S2-17, N-(4-(2-Methoxy-5-(4-oxo-3-(pyridin-3-ylmethyl)-1,2,3,4-tetrahydroquinazolin-2-yl)benzyloxy)-3,5-dimethylphenyl)acetamide]

classification from dose response of TSH-stimulated cAMP (FIG. 11) [9]: neutral antagonists
Structure (SMILES): COCCN1C(=O)c2ccccc2NC1c1ccc(OC)c(COc2c(C)cc(NC(C)=O)cc2C)c1 (centres unmarked) [Compound S2-29, N-(4-(2-methoxy-5-(3-(2-methoxyethyl)-4-oxo-1,2,3,4-tetrahydroquinazolin-2-yl)benzyloxy)-3,5-dimethylphenyl)acetamide]

Continued, molecule first:

Structure (SMILES): COc1ccc(C2Nc3ccccc3C(=O)N2Cc2ccco2)cc1COc1c(C)cccc1C (centres unmarked) [Compound 1, 2-(3-((2,6-dimethylphenoxy)methyl)-4-methoxyphenyl)-3-(furan-2-ylmethyl)-2,3-dihydroquinazolin-4(1H)-one]
cAMP accumulation stimulated by forskolin [1]: did not decrease | cAMP accumulation stimulated by vasoactive intestinal peptide [2]: did not decrease | cAMP accumulation stimulated by isoproterenol [3]: did not decrease | DIO2 mRNA level [4]: decreased | NIS mRNA level [4]: decreased | TG mRNA level [4]: decreased | TPO mRNA level [4]: decreased | TSHR mRNA level [4]: decreased

Structure (SMILES): COc1ccc(C2Nc3ccccc3C(=O)N2Cc2cccnc2)cc1COc1c(C)cccc1C (centres unmarked) [Compound S2-6, 2-(3-((2,6-dimethylphenoxy)methyl)-4-methoxyphenyl)-3-(pyridin-3-ylmethyl)-2,3-dihydroquinazolin-4-one]
potency and efficacy as TSHR antagonist relative to compound 1 [5]: as potent and effective as compound 1 | inhibition of basal and GD sera TSAb up-regulation of thyroperoxidase mRNA levels [6]: 65±2.0% | inhibition at 30 µM [7]: 39 ± 2.6% | effect on 125I-TSH binding to TSHRs [8]: no effect | classification from dose response of TSH-stimulated cAMP (FIG. 11) [9]: neutral antagonists | inhibition at 30 µM ([9]; HEK-EM293, read-out: inhibition of cAMP production stimulated by an EC50 concentration of TSH at 30 μM): 53% | mode of antagonism of TSH signaling ([9]; varying TSH concentrations (Schild analysis for compound 1)): competitive | solubility relative to compound 1 [10]: increased solubility | inhibition of basal signaling in retro-orbital fibroblasts [11]: 75% | inhibition of thyroid-stimulating antibody-stimulated signaling in retro-orbital fibroblasts [11]: 85% | classification from dose response of basal cAMP (inverse agonist activity) [12]: inverse agonists | inhibition at 30 µM ([12]; HEK-EM293, read-out: inhibition of basal cAMP production by TSHRs at 30 μM): 53%

Structure (SMILES): COc1ccc(C2Nc3ccccc3C(=O)N2Cc2ccco2)cc1COc1c(C)cc(NC(C)=O)cc1C (centres unmarked) [Compound S2-7, N-(4-(5-(3-(Furan-2-ylmethyl)-4-oxo-1,2,3,4-tetrahydroquinazolin-2-yl)-2-methoxybenzyloxy)-3,5-dimethylphenyl)acetamide]
classification from dose response of TSH-stimulated cAMP (FIG. 11) [9]: neutral antagonists | classification from dose response of basal cAMP (inverse agonist activity) [12]: inverse agonists

Structure (SMILES): COc1ccc(C2Nc3ccccc3C(=O)N2Cc2ccco2)cc1CSc1c(C)cccc1C (centres unmarked) [Compound S2-8, 2-(3-((2,6-Dimethylphenylthio)methyl)-4-methoxyphenyl)-3-(furan-2-ylmethyl)-2,3-dihydroquinazolin-4(1H)-one]
classification from dose response of TSH-stimulated cAMP (FIG. 11) [9]: neutral antagonists | classification from dose response of basal cAMP (inverse agonist activity) [12]: neutral antagonist
